Results on three molecules are retold here after paper PMC7308271, “Discovery of a new class of orthosteric antagonists with nanomolar potency at extrasynaptic GABAA receptors” (Scientific Reports, 2020).

A word on the inhibition: it is the share of the control response that was lost under treatment.

What all share (format): cell-based
In test [1] the target is T1, human α1β2γ2 GABAΑ receptor (Homo sapiens, UniProt P14867+P47870).
T1 construct: expressed in transfected cells; host or cells: HEK293 line stably expressing α1β2γ2 (gift from Marianne L. Jensen, Neurosearch)
Briefly: FMP assay at α1β2γ2 GABAA receptors in HEK cells. On the procedure:
(§1) HEK293 cells were maintained in DMEM containing GlutaMAX-I, supplemented with 10% FBS and 1% penicillin-streptomycin and incubated at 37 °C and a humidity of 5% CO2. For expression of δ-containing GABAΑ receptors, a HEK293 Flp-In^ΤΜ cell line stably expressing the human GABAΑ δ-subunits (referred to as δ-HEK) was used and the γ-containing subtypes was expressed in a background HEK293 Flp-In^ΤΜ cell line stably expressing the G-protein coupled peptide receptor NPBWR2 (referred to as HEK background)[26], both positively selected for using 200 μg/mL hygromycin B. α1β2γ2 receptors were stably expressed in a HEK293 cell line maintained as above but with no selection (gift from Marianne L. Jensen, Neurosearch).
(§2) To express recombinant GABAΑ receptors human α1, α2, α3, α5, α6, β2, γ2 (pcDNA3.1/Zeo) and α4, β1 (pUNIV)[26] subunit cDNA were transiently transfected into either δ-HEK or HEK background cells. δ-HEK cells were transfected with α- and β-subunits in a 1:1 ration whereas HEK background cells were transfected with α-, β- and γ-subunits in a 1:1:2 ratio. Human BGT1 (pcDNA5/FRT)[43] was transiently transfected into the δ-HEK cell line. δ-HEK cells transfected for whole-cell patch-clamp recordings were co-transfected with green fluorescent protein (GFP) as well as α- and β-subunits in a 0.5:1:1 ratio (0.8 μg + 1.6 μg + 1.6 μg in a 6 cm dish) in order to identify transfected cells. The transfection was carried out using Polyfect as transfection reagent according to the manufactures protocol expect for using half the recommended volume of Polyfect.
(§3) The FMP assay was performed as previously described with a few modifications. […] Data was obtained as changes in fluorescence units (∆RFU) by measuring emission at 560 nm caused by excitation at 530 nm. […]
(§4) Data obtained in the FMP assay are given as relative changes in fluorescence units (ΔRFU) by subtracting the average of the baseline fluorescence signal from the peak fluorescence signal after compound addition. […]

The target of test [2] is T2, human α5β2γ2 GABAΑ receptor (Homo sapiens, UniProt P31644+P47870).
T2 construct: expressed in transfected cells; host or cells: HEK background (HEK293 Flp-In stably expressing NPBWR2), transient α:β:γ 1:1:2
In words: FMP assay at α5β2γ2 GABAA receptors in HEK cells. On the procedure:
as §1, §2, §3, §4

The target of test [3] is T3, human α4β1δ GABAΑ receptor (Homo sapiens, UniProt P18505+P48169).
T3 construct: expressed in transfected cells; host or cells: δ-HEK (HEK293 Flp-In stably expressing human δ), transiently transfected with α4 and β1 1:1
In words: FMP assay at α4β1δ GABAA receptors in HEK cells (screening, concentration-inhibition, Schild analysis). Particulars: for IC50: vs GABA EC80 0.27–1.0 μM, mean.
From the text: We have previously established a FLIPR membrane potential (FMP) assay to study recombinant δ-containing GABAΑRs entailing a HEK293 Flp-In cell line stably expressing the human δ-subunit which is suitable for co-transfection with any desired α/β subunits. Initially, we validated the applicability of the FMP assay for efficient compound screening in 96-well microtiter plates using the human α4β1δ GABAΑR heterologously expressed in HEK cells. This receptor was chosen as we have previously shown this system to be reliable in expressing δ-containing receptors. To this end, we determined the Z′-factor, which is a statistical factor used to measure the suitability of an assay for high throughput screening.
Thus, we went on to further characterize 2027 by making a full concentration-inhibition curve.
as §1, §2
The FMP assay was performed as previously described with a few modifications. Briefly, HEK cells were transfected as described[26] and 16–20 hours later plated (50,000 cells/well in DMEM medium) into clear-bottomed black 96-well plates coated with poly-D-lysine and the assay performed 20–28 hours later. The assay protocol including the FMP blue dye incorporation into membranes was exactly as described in Falk-Petersen et al.[26]. […] Data was obtained as changes in fluorescence units (∆RFU) by measuring emission at 560 nm caused by excitation at 530 nm. Unless otherwise mentioned in the text or figure legends experiments were performed in at least three independent experiments each using three technical replicates.
Data obtained in the FMP assay are given as relative changes in fluorescence units (ΔRFU) by subtracting the average of the baseline fluorescence signal from the peak fluorescence signal after compound addition. All raw traces were inspected manually and peak signals resulting from compound/buffer addition together with signal artefacts were omitted from the analysis.
The concentration-response curves obtained in the FMP assay for both agonists (determining EC50 values) and antagonists (determining IC50 values) were fitted using the four-parameter concentration-response model: Response=bottom+top−bottom/1+10^[(logEC50-A)⋅nH] EC/IC50 values describe the concentration resulting in the half-maximal response (halfway between top and bottom), and nΗ is the Hill coefficient.

Test [4] concerns the target T4, human α2β2γ2 GABAΑ receptor (Homo sapiens, UniProt P47869+P47870).
T4 construct: expressed in transfected cells; host or cells: HEK background (HEK293 Flp-In stably expressing NPBWR2), transient α:β:γ 1:1:2
Briefly: FMP assay at α2β2γ2 GABAA receptors in HEK cells. On the procedure: as §1, §2, §3, §4

For test [5], the target named is T5, human α4β1γ2 GABAΑ receptor (Homo sapiens, UniProt P18505+P48169).
T5 construct: expressed in transfected cells; host or cells: HEK background (HEK293 Flp-In stably expressing NPBWR2), transient α:β:γ 1:1:2
In words: FMP assay at α4β1γ2 GABAA receptors in HEK cells. On the procedure:
as §1, §2, §3, §4

Test [6] has as its target T6, human α3β2γ2 GABAΑ receptor (Homo sapiens, UniProt P34903+P47870).
T6 construct: expressed in transfected cells; host or cells: HEK background (HEK293 Flp-In stably expressing NPBWR2), transient α:β:γ 1:1:2
In words: FMP assay at α3β2γ2 GABAA receptors in HEK cells. Here is the method: as §1, §2, §3, §4

Where [7] appears, read: read-out: pIC50 ± SEM (converted).

Structures are written as SMILES. “And” between values parts separate entries of the source, which are not always exact repeats. Equal values may be shown once. Read-outs that look alike come from different tables or passages of the source.

T1 sequence (P14867 28-456): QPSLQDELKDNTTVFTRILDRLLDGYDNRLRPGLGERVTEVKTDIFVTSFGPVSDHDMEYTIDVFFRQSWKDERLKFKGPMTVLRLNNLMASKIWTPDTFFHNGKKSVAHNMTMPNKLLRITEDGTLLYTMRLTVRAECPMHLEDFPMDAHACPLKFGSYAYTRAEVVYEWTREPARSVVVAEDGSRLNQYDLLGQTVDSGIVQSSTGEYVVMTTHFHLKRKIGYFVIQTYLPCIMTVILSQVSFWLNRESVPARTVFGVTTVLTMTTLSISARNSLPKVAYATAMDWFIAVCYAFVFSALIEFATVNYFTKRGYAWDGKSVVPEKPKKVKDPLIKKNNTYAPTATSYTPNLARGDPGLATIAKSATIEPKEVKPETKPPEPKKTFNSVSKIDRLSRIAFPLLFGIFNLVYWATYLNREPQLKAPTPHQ
T1 sequence (P47870 25-512 limits assumed): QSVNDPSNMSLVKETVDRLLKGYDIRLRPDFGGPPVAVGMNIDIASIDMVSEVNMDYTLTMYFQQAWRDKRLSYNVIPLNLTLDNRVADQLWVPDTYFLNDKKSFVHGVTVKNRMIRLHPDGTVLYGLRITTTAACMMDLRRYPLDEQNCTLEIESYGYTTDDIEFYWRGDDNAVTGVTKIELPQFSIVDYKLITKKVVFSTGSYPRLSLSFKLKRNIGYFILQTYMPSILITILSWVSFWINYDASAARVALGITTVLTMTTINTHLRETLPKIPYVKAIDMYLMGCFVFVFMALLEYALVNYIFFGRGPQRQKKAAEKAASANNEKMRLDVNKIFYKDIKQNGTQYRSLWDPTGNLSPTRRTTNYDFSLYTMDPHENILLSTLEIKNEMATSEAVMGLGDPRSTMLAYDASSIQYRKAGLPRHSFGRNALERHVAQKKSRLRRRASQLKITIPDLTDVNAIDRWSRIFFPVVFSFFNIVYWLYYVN
T1 sequence (P18507 40-475 partner): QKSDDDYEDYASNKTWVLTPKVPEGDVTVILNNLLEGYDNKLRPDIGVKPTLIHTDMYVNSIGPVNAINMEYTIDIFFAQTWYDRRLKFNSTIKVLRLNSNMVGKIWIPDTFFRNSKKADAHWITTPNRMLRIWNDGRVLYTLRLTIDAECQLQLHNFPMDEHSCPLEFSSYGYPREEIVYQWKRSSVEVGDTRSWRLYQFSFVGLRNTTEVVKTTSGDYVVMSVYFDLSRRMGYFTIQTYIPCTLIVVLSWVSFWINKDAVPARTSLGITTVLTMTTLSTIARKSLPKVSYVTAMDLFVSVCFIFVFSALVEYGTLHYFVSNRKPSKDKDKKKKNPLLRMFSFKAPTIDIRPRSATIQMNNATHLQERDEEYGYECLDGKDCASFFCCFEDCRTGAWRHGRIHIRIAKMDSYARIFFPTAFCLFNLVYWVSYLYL
T4 sequence (P47869 29-451): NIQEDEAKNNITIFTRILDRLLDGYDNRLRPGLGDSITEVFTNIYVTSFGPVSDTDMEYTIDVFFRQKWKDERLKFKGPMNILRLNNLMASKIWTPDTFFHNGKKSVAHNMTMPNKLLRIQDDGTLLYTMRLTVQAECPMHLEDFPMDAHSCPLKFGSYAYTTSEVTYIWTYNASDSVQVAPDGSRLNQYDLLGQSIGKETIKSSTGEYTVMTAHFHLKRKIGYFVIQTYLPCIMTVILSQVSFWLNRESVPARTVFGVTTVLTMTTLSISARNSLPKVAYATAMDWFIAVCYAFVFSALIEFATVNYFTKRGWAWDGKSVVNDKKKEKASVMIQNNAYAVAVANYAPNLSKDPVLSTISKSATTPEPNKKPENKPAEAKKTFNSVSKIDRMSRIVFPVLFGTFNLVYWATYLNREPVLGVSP
T4 sequence (P47870 25-512 limits assumed): as the sequence (P47870 25-512 limits assumed) above
T4 sequence (P18507 40-475 partner): as the sequence (P18507 40-475 partner) above
T5 sequence (P48169 36-554): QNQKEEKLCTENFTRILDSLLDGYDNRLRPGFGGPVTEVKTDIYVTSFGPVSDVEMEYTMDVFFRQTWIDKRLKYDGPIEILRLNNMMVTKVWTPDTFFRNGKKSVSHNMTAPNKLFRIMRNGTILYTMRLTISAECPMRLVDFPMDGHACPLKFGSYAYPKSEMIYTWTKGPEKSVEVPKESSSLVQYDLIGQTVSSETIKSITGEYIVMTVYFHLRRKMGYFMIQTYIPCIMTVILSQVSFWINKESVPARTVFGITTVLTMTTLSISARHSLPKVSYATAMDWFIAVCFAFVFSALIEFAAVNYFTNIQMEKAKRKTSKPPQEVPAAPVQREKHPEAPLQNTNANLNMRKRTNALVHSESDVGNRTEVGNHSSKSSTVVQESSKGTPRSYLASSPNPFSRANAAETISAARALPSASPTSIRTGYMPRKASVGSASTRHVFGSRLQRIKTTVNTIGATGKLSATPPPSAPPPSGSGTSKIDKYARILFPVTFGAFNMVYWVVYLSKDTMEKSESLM
T5 sequence (P18505 26-474): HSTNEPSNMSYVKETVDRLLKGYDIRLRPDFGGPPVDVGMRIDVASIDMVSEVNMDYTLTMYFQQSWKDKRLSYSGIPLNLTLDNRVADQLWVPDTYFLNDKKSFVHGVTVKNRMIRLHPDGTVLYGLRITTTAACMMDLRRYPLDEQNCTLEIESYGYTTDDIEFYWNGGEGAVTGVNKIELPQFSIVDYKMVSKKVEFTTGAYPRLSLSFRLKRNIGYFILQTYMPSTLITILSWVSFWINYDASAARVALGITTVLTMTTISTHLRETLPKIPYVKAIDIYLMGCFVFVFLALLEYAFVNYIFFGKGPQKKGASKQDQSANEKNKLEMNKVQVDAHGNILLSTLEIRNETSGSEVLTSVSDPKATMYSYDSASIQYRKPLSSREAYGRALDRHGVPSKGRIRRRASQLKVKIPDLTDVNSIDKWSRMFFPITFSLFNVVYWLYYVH
T5 sequence (P18507 40-475 partner): as the sequence (P18507 40-475 partner) above
T3 sequence (P48169 36-554): as the sequence (P48169 36-554) above
T3 sequence (P18505 26-474): as the sequence (P18505 26-474) above
T3 sequence (O14764 25-452 partner): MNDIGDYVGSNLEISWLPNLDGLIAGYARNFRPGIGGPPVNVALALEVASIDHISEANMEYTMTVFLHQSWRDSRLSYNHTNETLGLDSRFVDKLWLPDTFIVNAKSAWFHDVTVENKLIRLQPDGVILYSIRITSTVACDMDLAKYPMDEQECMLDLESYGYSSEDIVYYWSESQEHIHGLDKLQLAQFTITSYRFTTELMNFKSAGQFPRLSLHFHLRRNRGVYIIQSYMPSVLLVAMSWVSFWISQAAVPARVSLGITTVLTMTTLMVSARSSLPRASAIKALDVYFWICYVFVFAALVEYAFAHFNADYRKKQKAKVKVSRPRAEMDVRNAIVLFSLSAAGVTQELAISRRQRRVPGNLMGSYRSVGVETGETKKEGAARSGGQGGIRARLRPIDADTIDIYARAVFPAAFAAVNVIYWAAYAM
T6 sequence (P34903 29-492): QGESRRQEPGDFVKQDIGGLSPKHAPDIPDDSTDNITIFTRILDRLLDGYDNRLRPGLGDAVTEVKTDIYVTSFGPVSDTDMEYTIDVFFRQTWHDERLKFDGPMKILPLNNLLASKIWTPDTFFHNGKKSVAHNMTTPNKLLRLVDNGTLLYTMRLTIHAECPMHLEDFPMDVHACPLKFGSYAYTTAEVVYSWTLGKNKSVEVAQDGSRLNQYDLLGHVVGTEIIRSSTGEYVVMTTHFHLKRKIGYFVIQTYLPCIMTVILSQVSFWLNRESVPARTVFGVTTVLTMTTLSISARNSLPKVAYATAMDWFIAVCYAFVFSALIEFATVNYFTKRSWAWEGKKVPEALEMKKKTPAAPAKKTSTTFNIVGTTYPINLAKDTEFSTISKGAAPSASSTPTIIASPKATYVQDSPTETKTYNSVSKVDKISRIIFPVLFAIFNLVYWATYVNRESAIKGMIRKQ
T6 sequence (P47870 25-512 limits assumed): as the sequence (P47870 25-512 limits assumed) above
T6 sequence (P18507 40-475 partner): as the sequence (P18507 40-475 partner) above
T2 sequence (P31644 32-462): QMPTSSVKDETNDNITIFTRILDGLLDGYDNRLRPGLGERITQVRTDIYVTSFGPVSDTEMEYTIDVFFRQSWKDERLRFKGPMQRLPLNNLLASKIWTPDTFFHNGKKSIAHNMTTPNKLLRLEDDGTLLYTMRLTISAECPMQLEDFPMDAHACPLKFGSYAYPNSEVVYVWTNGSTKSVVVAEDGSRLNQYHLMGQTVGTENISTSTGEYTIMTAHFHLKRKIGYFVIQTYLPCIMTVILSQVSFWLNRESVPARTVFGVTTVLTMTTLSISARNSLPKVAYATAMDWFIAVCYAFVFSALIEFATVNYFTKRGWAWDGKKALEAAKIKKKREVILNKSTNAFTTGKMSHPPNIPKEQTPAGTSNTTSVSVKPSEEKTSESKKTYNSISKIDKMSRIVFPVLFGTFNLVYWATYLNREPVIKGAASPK
T2 sequence (P47870 25-512 limits assumed): as the sequence (P47870 25-512 limits assumed) above
T2 sequence (P18507 40-475 partner): as the sequence (P18507 40-475 partner) above

With `NCCCC(=O)O` [GABA], the “GABA EC80” value in test [1] (α1β2γ2, calculated from GABA potencies) is 8000 nM; in test [2] (α5β2γ2, calculated from GABA potencies), 3000 nM; in test [3] (calculated from GABA potencies), 270 to 1000 nM; in test [4] (α2β2γ2, calculated from GABA potencies), 10000 nM; in test [5] (α4β1γ2, calculated from GABA potencies), 4000 to 8000 nM; in test [6] (α3β2γ2, calculated from GABA potencies), 10000 nM.

As to `O=C(Nc1cccc(C(=O)N2CCC3(CCNCC3)CC2)c1)c1cccs1` [compound 018, N-(3-(3,9-diazaspiro[5.5]undecane-3-carbonyl)phenyl)thiophene-2-carboxamide], the IC50 in test [1] is 790 nM; in test [2], 51 nM; in test [3], 90 nM and 88 nM; in test [4] (setting [7]), 324 nM; in test [5] it was 37.2 nM; in test [6] (read-out: IC50), 79 nM. Also, the Kd in test [3] (Gaddum/Schild analysis, read-out: KΒ from Schild analysis) was 19 nM. For the same molecule, the “potency of 018 relative to 2027” value in test [3] (IC50 ratio) is “approximately 10 times”.

Take `CC(=O)Nc1cccc(C(=O)N2CCC3(CCNCC3)CC2)c1` [compound 2027, N-(3-(3,9-diazaspiro[5.5]undecane-3-carbonyl)phenyl)acetamide]: the IC50 in test [1] was 4960 nM; in test [2], 590 nM; in test [3], 1030 nM; in test [4] (read-out: IC50) it was 2960 nM; in test [5], 166 nM; in test [6] (setting [7]) it was 288 nM. Further, the “hit validation, antagonistic effect” value in test [3] (100, 50 and 10 μM in triplicates) is recorded as “showed antagonistic effect”. Also, in test [3] (HEK293, read-out: inhibition of the GABA EC80 signal, primary screening, 10 μM, singlicates), the inhibition at 10 µM is more than 50%.
